Columns and labels:
[1] = system: skin barrier function in SDS-treated mice; assay: Rough skin experiment, long term (28-day) oral administration: transepidermal water loss after SDS treatment; assay type: in vivo, HR-1 hairless mice; conditions: 10 mM in drinking water, two hours after the second SDS treatment (28th day); for Δ(delta) TEWL value: negative control 2.4
Description: The administration of the amino acid, the rough skin experiments and the quantification of the transepidermal water loss were conducted similarly to Example 1 using the HR-1 hairless mice described above. The amino acid employed was 10 mM L- or D-glutamic acid or L- or D-glutamine. The negative control employed was drinking water containing no amino acid. The SDS treatment was conducted on the 27th and 28th days after starting the administration of the amino acid. In this Example, the SDS treatments on the 27th and 28th days after starting the administration of the amino acid described above are referred to as the first and the second SDS treatments, respectively. The quantification of the transepidermal water loss was conducted two hours after the second SDS treatment.
The error bars for relevant experimental conditions are the standard deviations of the measured values of the results of the experiments repeated five times under identical conditions. The asterisk (*) indicates p<5% by Dunnett's test.

[2] = system: skin barrier function in SDS-treated mice; assay: Rough skin experiment, short term (11-day) oral administration: transepidermal water loss after SDS treatment; assay type: in vivo, HR-1 hairless mice; conditions: for Δ(delta) TEWL value: difference from the negative control (Dunnett's test, p<5%): 2 hours after the second SDS treatment
Description: HR-1 hairless mice (males, seven-week old, Hoshino Laboratory Animals, Inc.) were subjected to the experiment. Each experimental group included seven to eight mice.
In order to examine the effect of the amino acid on the rough skin, 1 mM or 10 mM D-glutamic acid was given with drinking water. The negative control employed was drinking water containing no D-glutamic acid.
An unwoven fabric soaked with a 10% SDS solution was brought into contact for five minutes with one side of the back of a mouse under anesthesia (hereinafter referred to as “SDS treatment”) on the 10th and 11th days after starting the administration of D-glutamic acid. The SDS treatment may be conducted two to five times repetitively until the rough skin becomes evident. In this Example, the SDS treatments on the 10th and 11th days after starting the administration of D-glutamic acid are referred to as the first and the second SDS treatments, respectively. Also in the following transepidermal water loss measurements, an area treated with SDS is referred to as an “SDS treated area,” while an area of the opposite side which was not treated with SDS is referred to as an “SDS non-treated area.”
In order to quantify the rough skin condition, the transepidermal water loss was measured immediately before the first SDS treatment (before SDS treatment) and two hours after the first and the second SDS treatments using a transepidermal water loss meter (Tewameter TM-300, manufactured by Courage+Khazaka electronic GmbH) in accordance with the instruction provided by the manufacturer. Here, the value obtained by subtracting the quantity of the transepidermal water loss of the SDS non-treated area from the quantity of the transepidermal water loss of the SDS treated area was regarded as a “Δ(delta) TEWL value.”
The error bars for relevant experimental conditions are the standard deviations of the measured values of the results of the experiments seven to eight times under identical conditions. The asterisk (*) indicates p<5% by Dunnett's test.

SMILES | Δ(delta) TEWL value: difference from the negative control (Dunnett's test, p<5%) [1] | Δ(delta) TEWL value [1] [g/m^2/h] | Δ(delta) TEWL value: difference from the negative control (Dunnett's test, p<5%) ([2]; 1 mM in drinking water) | Δ(delta) TEWL value ([2]; 1 mM in drinking water, immediately before the first SDS treatment (10th day), negative control 0.7) [g/m^2/h] | Δ(delta) TEWL value ([2]; 1 mM in drinking water, two hours after the first SDS treatment (10th day), negative control 2.2) [g/m^2/h] | Δ(delta) TEWL value ([2]; 1 mM in drinking water, two hours after the second SDS treatment (11th day), negative control 7.0) [g/m^2/h] | Δ(delta) TEWL value: difference from the negative control (Dunnett's test, p<5%) ([2]; 10 mM in drinking water) | Δ(delta) TEWL value ([2]; 10 mM in drinking water, immediately before the first SDS treatment (10th day), negative control 0.7) [g/m^2/h] | Δ(delta) TEWL value ([2]; 10 mM in drinking water, two hours after the first SDS treatment (10th day), negative control 2.2) [g/m^2/h] | Δ(delta) TEWL value ([2]; 10 mM in drinking water, two hours after the second SDS treatment (11th day), negative control 7.0) [g/m^2/h]
N[C@H](CCC(=O)O)C(=O)O [D-glutamic acid] | significant difference | −0.9 | significant difference | 0.4 | 1.5 | 3.2 | significant difference | 0.1 | 1.2 | 3.8
N[C@@H](CCC(=O)O)C(=O)O [L-glutamic acid] | no significant difference | 1.1 | – | – | – | – | – | – | – | –
NC(=O)CC[C@@H](N)C(=O)O [D-glutamine] | no significant difference | 3.3 | – | – | – | – | – | – | – | –
NC(=O)CC[C@H](N)C(=O)O [L-glutamine] | no significant difference | 2.3 | – | – | – | – | – | – | – | –

Source: US20120165408A1, “ORAL COMPOSITION FOR ALLEVIATING ROUGH SKIN” (Shiseido Company, Ltd., priority 2009, published 2012)
